Data from ChEMBL document CHEMBL6153094, “Rationally designed highly amphipathic antimicrobial peptides demonstrating superior bacterial selectivity relative to the corresponding α-helix peptide” (Eur J Med Chem, 2025).
Calls of active or inactive are those of the source. The calls are words filed in the database; no cut-off is given here. Where a SMILES comes first, the peptide text is derived from it. Bridges are numbered along the chain shown (N, C = ends). [ ]: non-standard residue; d: D form. The star is where a group is joined. X1 = CC[C@H](C)CCCCC(=O)*; dDab = NCC[C@@H](N)C(=O)O; Dab = NCC[C@H](N)C(=O)O

Assays:
[1] = test system: Staphylococcus aureus; experiment: Antibacterial activity against methicillin-resistant Staphylococcus aureus ATCC 33591 infected in male Balb/c mouse model of full thickness skin wound assessed as reduction in bacteria in skin wound at 1 mg/ml pre-infected with bacteria for 1 hrs followed by compound administration at 1,24,48 and 72 hrs post infection and measured after 10 days by photographic analysis; type: functional, organism-based; conditions: time 10.0 day
[2] = test system: Pseudomonas aeruginosa; experiment: Induction of morphological changes in Pseudomonas aeruginosa ATCC 27853 assessed as content leakage at 2 times of MIC incubated for 30 to 120 mins by SEM analysis; type: functional, organism-based; conditions: time 30-120 min
[3] = test system: Pseudomonas aeruginosa; experiment: Antibacterial activity against Pseudomonas aeruginosa ATCC 27853 incubated for 18 hrs in presence of 5% serum by broth microdilution method; type: functional, organism-based
[4] = test system: Pseudomonas aeruginosa; experiment: Induction of morphological changes in Pseudomonas aeruginosa ATCC 27853 assessed as membrane disruption at 2 times of MIC incubated for 30 to 120 mins by SEM analysis; type: functional, organism-based; conditions: time 30-120 min
[5] = test system: Pseudomonas aeruginosa; experiment: Antibacterial activity against Pseudomonas aeruginosa ATCC 27853 incubated for 18 hrs in presence of 2.5% serum by broth microdilution method; type: functional, organism-based
[6] = test system: Pseudomonas aeruginosa; experiment: Antibiofilm activity in Pseudomonas aeruginosa ATCC 27853 assessed as inhibition of biofilm formation at 1/2 times of MIC incubated for 24 hrs by crystal violet staining based analysis; type: functional, organism-based
[7] = test system: Cell membrane; experiment: Induction of inner membrane permeabilization in Escherichia coli ML-35 ATCC 43837 assessed as increase in […] measured for 135 mins by ONPG based analysis; type: subcellular
[8] = test system: Klebsiella pneumoniae; experiment: Antibacterial activity against Klebsiella pneumoniae ATCC 700603 infected in male Balb/c mouse model of pneumonia assessed as decrease in decrease in IL-1beta level in lung at 5 mg/kg, ip administered at 4 and 12 hrs post-infected and measured after 24 hrs by ELISA; type: functional, organism-based; conditions: time 20.0 hrs
[9] = test system: Cell membrane; experiment: Disruption of outer membrane integrity in Pseudomonas aeruginosa ATCC 27853 assessed as increase in fluorescence intensity at 4 times of MIC measured for 12 mins by NPN uptake assay; type: subcellular
[10] = test system: Pseudomonas aeruginosa; experiment: Bactericidal activity against Pseudomonas aeruginosa ATCC 27853 assessed as bacterial killing at 1 to 4 times of MIC by time-kill kinetics assay; type: functional, organism-based; conditions: time <= 360.0 min
[11] = test system: Staphylococcus aureus; experiment: Induction of morphological changes in Staphylococcus aureus ATCC 25923 assessed as cellular fragmentation at 2 times of MIC incubated for 30 to 120 mins by SEM analysis; type: functional, organism-based; conditions: time 30-120 min
[12] = test system: DNA; experiment: Binding affinity to Staphylococcus aureus ATCC 25923 DNA at 1 to 8 times of MIC measured after 30 mins by agarose gel electrophoresis; type: nucleic-acid assay
[13] = test system: Pseudomonas aeruginosa; experiment: Induction of morphological changes in Pseudomonas aeruginosa ATCC 27853 assessed as cellular fragmentation at 2 times of MIC incubated for 30 to 120 mins by SEM analysis; type: functional, organism-based; conditions: time 30-120 min
[14] = test system: Pseudomonas aeruginosa; experiment: Antibacterial activity against Pseudomonas aeruginosa ATCC 27853 incubated for 18 hrs in presence of 10% serum by broth microdilution method; type: functional, organism-based
[15] = test system: Staphylococcus aureus; experiment: Induction of morphological changes in Staphylococcus aureus ATCC 25923 assessed as blister formation at 2 times of MIC incubated for 30 to 120 mins by SEM analysis; type: functional, organism-based; conditions: time 30-120 min
[16] = test system: Staphylococcus aureus; experiment: Antibacterial activity against Staphylococcus aureus ATCC 25923 incubated for 18 hrs in presence of 5% serum by broth microdilution method; type: functional, organism-based
[17] = test system: Staphylococcus aureus; experiment: Antibacterial activity against Staphylococcus aureus ATCC 25923 incubated for 18 hrs in presence of 2.5% serum by broth microdilution method; type: functional, organism-based
[18] = test system: Pseudomonas aeruginosa; experiment: Bactericidal activity against Pseudomonas aeruginosa ATCC 27853 assessed as bacterial eradication at 1 times of MIC measured within 30 mins by time-kill kinetics assay; type: functional, organism-based
[19] = test system: Staphylococcus aureus; experiment: Antibacterial activity against methicillin-resistant Staphylococcus aureus ATCC 33591 infected in male Balb/c mouse model of full thickness skin wound assessed as reduction in bacterial load in skin at 1 mg/ml pre-infected with bacteria for 1 hrs followed by compound administration at 1,24,48 and 72 hrs post infection and measured 60 hrs post infection by agar plate method; type: functional, organism-based; conditions: time 59.0 hrs
[20] = test system: Klebsiella pneumoniae; experiment: Antibacterial activity against Klebsiella pneumoniae ATCC 700603 infected in male Balb/c mouse model of pneumonia assessed as decrease in decrease in TNF-alpha level in lung at 5 mg/kg, ip administered at 4 and 12 hrs post-infected and measured after 24 hrs by ELISA; type: functional, organism-based; conditions: time 20.0 hrs
[21] = test system: Pseudomonas aeruginosa; experiment: Induction of morphological changes in Pseudomonas aeruginosa ATCC 27853 assessed as cell adhesion at 2 times of MIC incubated for 30 to 120 mins by SEM analysis; type: functional, organism-based; conditions: time 30-120 min
[22] = test system: Klebsiella pneumoniae; experiment: Antibacterial activity against Klebsiella pneumoniae ATCC 700603 infected in male Balb/c mouse model of pneumonia assessed as decrease in bacterial load in lung at 5 mg/kg, ip administered at 4 and 12 hrs post-infected and measured after 24 hrs by agar plate method; type: functional, organism-based; conditions: time 20.0 hrs
[23] = test system: Pseudomonas aeruginosa; experiment: Antibacterial activity against Pseudomonas aeruginosa ATCC 27853 assessed as inhibition of bacterial growth compound pretreated with 32 microg/ml of LPS for 1 hrs followed by bacterial addition and measured after 18 hrs by absorbance based assay; type: functional, organism-based
[24] = test system: Cell membrane; experiment: Disruption of outer membrane integrity in Pseudomonas aeruginosa ATCC 27853 assessed as increase in fluorescence intensity at 2 times of MIC measured for 12 mins by NPN uptake assay; type: subcellular
[25] = test system: Staphylococcus aureus; experiment: Induction of morphological changes in Staphylococcus aureus ATCC 25923 assessed as membrane disruption at 2 times of MIC incubated for 30 to 120 mins by SEM analysis; type: functional, organism-based; conditions: time 30-120 min
[26] = test system: Staphylococcus aureus; experiment: Bactericidal activity against Staphylococcus aureus ATCC 25923 assessed as bacterial eradication at 1 times of MIC measured after 360 mins by time-kill kinetics assay; type: functional, organism-based
[27] = test system: Cell membrane; experiment: Disruption of outer membrane integrity in Pseudomonas aeruginosa ATCC 27853 assessed as increase in fluorescence intensity at 1 times of MIC measured for 12 mins by NPN uptake assay; type: subcellular
[28] = test system: DNA; experiment: Binding affinity to Pseudomonas aeruginosa ATCC 27853 DNA at 1 to 8 times of MIC measured after 30 mins by agarose gel electrophoresis; type: nucleic-acid assay
[29] = test system: Staphylococcus aureus; experiment: Bactericidal activity against Staphylococcus aureus ATCC 25923 assessed as bacterial killing measured upto 360 mins by time-kill kinetics assay; type: functional, organism-based
[30] = test system: Cell membrane; experiment: Disruption of membrane integrity in Staphylococcus aureus ATCC 25923 at 2 times of MIC incubated for 30 to 120 mins by SEM analysis; type: subcellular; conditions: time 30-120 min
[31] = test system: Staphylococcus aureus; experiment: Bactericidal activity against Staphylococcus aureus ATCC 25923 assessed as bacterial eradication at 2 times of MIC measured after 120 mins by time-kill kinetics assay; type: functional, organism-based
[32] = test system: Pseudomonas aeruginosa; experiment: Bactericidal activity against Pseudomonas aeruginosa ATCC 27853 assessed as bacterial eradication at 2 times of MIC measured within 30 mins by time-kill kinetics assay; type: functional, organism-based
[33] = test system: Staphylococcus aureus; experiment: Induction of morphological changes in Staphylococcus aureus ATCC 25923 assessed as content leakage at 2 times of MIC incubated for 30 to 120 mins by SEM analysis; type: functional, organism-based; conditions: time 30-120 min
[34] = test system: Staphylococcus aureus; experiment: Bactericidal activity against Staphylococcus aureus ATCC 25923 assessed as bacterial killing at 1 to 4 times of MIC by time-kill kinetics assay; type: functional, organism-based; conditions: time <= 360.0 min
[35] = test system: Pseudomonas aeruginosa; experiment: Induction of morphological changes in Pseudomonas aeruginosa ATCC 27853 assessed as blister formation at 2 times of MIC incubated for 30 to 120 mins by SEM analysis; type: functional, organism-based; conditions: time 30-120 min
[36] = test system: Staphylococcus aureus; experiment: Antibacterial activity against Staphylococcus aureus ATCC 25923 incubated for 18 hrs in presence of 10% serum by broth microdilution method; type: functional, organism-based
[37] = test system: Cell membrane; experiment: Disruption of membrane integrity in Pseudomonas aeruginosa ATCC 27853 at 2 times of MIC incubated for 30 to 120 mins by SEM analysis; type: subcellular; conditions: time 30-120 min
[38] = test system: Pseudomonas aeruginosa; experiment: Bactericidal activity against Pseudomonas aeruginosa ATCC 27853 assessed as bacterial killing measured upto 360 mins by time-kill kinetics assay; type: functional, organism-based
[39] = test system: Pseudomonas aeruginosa; experiment: Bactericidal activity against Pseudomonas aeruginosa ATCC 27853 assessed as bacterial eradication at 4 times of MIC measured within 30 mins by time-kill kinetics assay; type: functional, organism-based
[40] = test system: Staphylococcus aureus; experiment: Bactericidal activity against Staphylococcus aureus ATCC 25923 assessed as bacterial eradication at 4 times of MIC measured after 120 mins by time-kill kinetics assay; type: functional, organism-based
[41] = test system: Staphylococcus aureus; experiment: Induction of morphological changes in Staphylococcus aureus ATCC 25923 assessed as cell adhesion at 2 times of MIC incubated for 30 to 120 mins by SEM analysis; type: functional, organism-based; conditions: time 30-120 min
[42] = test system: Klebsiella pneumoniae; experiment: Antibacterial activity against Klebsiella pneumoniae ATCC 700603 infected in male Balb/c mouse model of pneumonia assessed as decrease in decrease in IL-6 level in lung at 5 mg/kg, ip administered at 4 and 12 hrs post-infected and measured after 24 hrs by ELISA; type: functional, organism-based; conditions: time 20.0 hrs

## CC(C)CCCCC(=O)N[C@@H](CCN)C(=O)N[C@H](C(=O)N[C@@H](CCN)C(=O)N[C@H]1CCNC(=O)[C@H]([C@@H](C)O)NC(=O)[C@H](CCN)NC(=O)[C@H](CCN)NC(=O)[C@H](CC(C)C)NC(=O)[C@@H](Cc2ccccc2)NC(=O)[C@@H](CCN)NC1=O)[C@@H](C)O.CC[C@H](C)CCCCC(=O)N[C@@H](CCN)C(=O)N[C@H](C(=O)N[C@@H](CCN)C(=O)N[C@H]1CCNC(=O)[C@H]([C@@H](C)O)NC(=O)[C@H](CCN)NC(=O)[C@H](CCN)NC(=O)[C@H](CC(C)C)NC(=O)[C@@H](Cc2ccccc2)NC(=O)[C@@H](CCN)NC1=O)[C@@H](C)O (X1-[Dab]T[Dab][Dab][dDab][dF]L[Dab][Dab]T; lactam 4-C)
[1]
  Activity: Active; Obvious Facilitation Of Wound Healing Not Observed
[2]
  Activity: Active
[3]
  Activity: Active
[4]
  Activity: Active
[5]
  Activity: Active
[6]
  Activity: inactive
[7]
  Activity: Active; Lower Concentration Of Compound Is Sufficient To Disrupt Inner Membrane
[8]
  Activity: Active
[9]
  Activity: Active; Maximum Permeability Effects Observed
[10]
  Activity: Time-dependent-effect
[11]
  Activity: Active
[12]
  Activity: Not active; Weak Binding Affinity Observed
[13]
  Activity: Active
[14]
  Activity: Active
[15]
  Activity: Active
[16]
  Activity: Active
[17]
  Activity: Active
[18]
  Activity: Active
[19]
  Activity: Active
[20]
  Activity: Active
[21]
  Activity: Active
[22]
  Activity: Active
[23]
  Activity: Not active; Compound Binds To Lps To Exert Its Activity
[24]
  Activity: Active
[25]
  Activity: Active
[26]
  Activity: Active
[27]
  Activity: Active
[28]
  Activity: Not active; Weak Binding Affinity Observed
[29]
  Activity: Dose-dependent-effect
[30]
  Activity: Active
[31]
  Activity: Active
[32]
  Activity: Active
[33]
  Activity: Active
[34]
  Activity: Time-dependent-effect
[35]
  Activity: Active
[36]
  Activity: Active
[37]
  Activity: Active; Pronounced Detrimental Effect Observed
[38]
  Activity: Dose-dependent-effect
[39]
  Activity: Active
[40]
  Activity: Active
[41]
  Activity: Active
[42]
  Activity: inactive
